Legend:
[1] = target: T1, CYP2C9 (Homo sapiens, UniProt P11712); assay: Inhibition of human recombinant CYP2C9 at 1 uM by fluorimetric assay; type: ADME
[2] = target: T2, CYP2C19 (Homo sapiens, UniProt P33261); assay: Inhibition of human recombinant CYP2C19 at 1 uM by fluorimetric assay; type: ADME
[3] = target: T3, CYP1A2 (Homo sapiens, UniProt P05177); assay: Inhibition of human recombinant CYP1A2 at 1 uM by fluorimetric assay; type: ADME
T3 sequence (P05177 whole entry): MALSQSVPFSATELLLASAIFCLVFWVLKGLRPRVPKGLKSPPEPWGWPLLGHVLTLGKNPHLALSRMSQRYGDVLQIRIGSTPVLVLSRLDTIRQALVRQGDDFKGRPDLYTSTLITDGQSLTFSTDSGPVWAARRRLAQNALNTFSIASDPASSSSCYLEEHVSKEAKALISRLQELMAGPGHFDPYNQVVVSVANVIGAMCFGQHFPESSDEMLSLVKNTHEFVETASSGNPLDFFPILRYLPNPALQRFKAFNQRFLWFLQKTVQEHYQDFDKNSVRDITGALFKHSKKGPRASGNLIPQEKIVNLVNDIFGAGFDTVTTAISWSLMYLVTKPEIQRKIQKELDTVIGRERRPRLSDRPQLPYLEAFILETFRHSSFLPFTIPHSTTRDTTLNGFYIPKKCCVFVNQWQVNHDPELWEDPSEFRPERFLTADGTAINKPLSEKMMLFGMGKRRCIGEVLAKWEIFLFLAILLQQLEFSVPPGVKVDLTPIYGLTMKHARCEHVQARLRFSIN

[4] = target: T4, CYP2D6 (Homo sapiens, UniProt P10635); assay: Inhibition of human recombinant CYP2D6 at 1 uM by fluorimetric assay; type: ADME
[5] = target: T5, CYP3A4 (Homo sapiens, UniProt P08684); assay: Inhibition of human recombinant CYP3A4 using BFC as substrate at 1 uM by fluorimetric assay; type: ADME; conditions: recombinant CYP3A4, probe BFC
[6] = Ratio of drug uptake from rat brain to plasma at 1 mg/kg, iv after 1 hr; type: ADME, organism-based; set-up: dose 1 mg/kg, route intravenous; conditions: read-out: BPR
[7] = target: T5, CYP3A4; assay: Inhibition of human recombinant CYP3A4 using DBF as substrate at 1 uM by fluorimetric assay; type: ADME; conditions: recombinant CYP3A4, probe DBF
[8] = Volume of distribution at steady state in rat; type: ADME, organism-based; conditions: in vivo, read-out: Vdss
[9] = Plasma clearance in rat at 1 mg/kg, iv; type: ADME, organism-based; set-up: dose 1 mg/kg, route intravenous
[10] = target: T6, Orexin/Hypocretin receptor type 1 (Homo sapiens) (UniProt O43613); assay: Antagonist activity at human recombinant OX1 receptor expressed in CHO cells assessed as OXA-stimulated intracellular calcium mobilization by FLIPR assay; type: functional, cell-based
T6 sequence (whole entry): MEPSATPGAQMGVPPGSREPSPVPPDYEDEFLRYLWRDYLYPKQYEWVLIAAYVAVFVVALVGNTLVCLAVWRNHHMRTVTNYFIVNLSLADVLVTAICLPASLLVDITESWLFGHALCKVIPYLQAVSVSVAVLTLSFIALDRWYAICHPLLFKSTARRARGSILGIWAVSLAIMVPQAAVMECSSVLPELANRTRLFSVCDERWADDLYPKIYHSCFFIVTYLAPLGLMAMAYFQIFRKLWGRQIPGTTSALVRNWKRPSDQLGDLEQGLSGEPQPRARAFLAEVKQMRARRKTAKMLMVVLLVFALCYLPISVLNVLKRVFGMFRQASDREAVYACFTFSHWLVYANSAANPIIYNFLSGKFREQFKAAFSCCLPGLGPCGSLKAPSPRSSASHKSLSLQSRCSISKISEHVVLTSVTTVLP

[11] = target: T7, Orexin receptor type 2 (Homo sapiens) (UniProt O43614); assay: Antagonist activity at human recombinant OX2 receptor expressed in HEK293 cells assessed as OXB-stimulated intracellular calcium mobilization by FLIPR assay; type: functional, cell-based
T7 sequence (whole entry): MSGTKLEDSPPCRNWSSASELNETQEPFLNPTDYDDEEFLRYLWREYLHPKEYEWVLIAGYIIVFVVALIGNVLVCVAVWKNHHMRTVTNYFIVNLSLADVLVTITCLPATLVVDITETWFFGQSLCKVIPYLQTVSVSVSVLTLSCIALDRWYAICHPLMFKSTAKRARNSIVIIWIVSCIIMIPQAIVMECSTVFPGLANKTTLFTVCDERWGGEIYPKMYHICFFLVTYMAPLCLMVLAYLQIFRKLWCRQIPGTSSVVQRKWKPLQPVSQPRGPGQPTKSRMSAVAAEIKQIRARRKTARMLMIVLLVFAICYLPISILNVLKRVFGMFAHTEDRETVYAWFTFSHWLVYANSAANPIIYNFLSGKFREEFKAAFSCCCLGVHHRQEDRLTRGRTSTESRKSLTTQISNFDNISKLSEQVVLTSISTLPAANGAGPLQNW

[12] = target: T2, CYP2C19; assay: Inhibition of human recombinant CYP2C19 at 3 uM by fluorimetric assay; type: ADME
[13] = target: T1, CYP2C9; assay: Inhibition of human recombinant CYP2C9 at 3 uM by fluorimetric assay; type: ADME
[14] = target: T3, CYP1A2; assay: Inhibition of human recombinant CYP1A2 at 3 uM by fluorimetric assay; type: ADME
[15] = target: T5, CYP3A4; assay: Inhibition of human recombinant CYP3A4 using BFC as substrate at 3 uM by fluorimetric assay; type: ADME; conditions: recombinant CYP3A4, probe BFC
[16] = target: T4, CYP2D6; assay: Inhibition of human recombinant CYP2D6 at 3 uM by fluorimetric assay; type: ADME
[17] = target: T5, CYP3A4; assay: Inhibition of human recombinant CYP3A4 using DBF as substrate at 3 uM by fluorimetric assay; type: ADME; conditions: recombinant CYP3A4, probe DBF

T5 sequence (P08684 whole entry): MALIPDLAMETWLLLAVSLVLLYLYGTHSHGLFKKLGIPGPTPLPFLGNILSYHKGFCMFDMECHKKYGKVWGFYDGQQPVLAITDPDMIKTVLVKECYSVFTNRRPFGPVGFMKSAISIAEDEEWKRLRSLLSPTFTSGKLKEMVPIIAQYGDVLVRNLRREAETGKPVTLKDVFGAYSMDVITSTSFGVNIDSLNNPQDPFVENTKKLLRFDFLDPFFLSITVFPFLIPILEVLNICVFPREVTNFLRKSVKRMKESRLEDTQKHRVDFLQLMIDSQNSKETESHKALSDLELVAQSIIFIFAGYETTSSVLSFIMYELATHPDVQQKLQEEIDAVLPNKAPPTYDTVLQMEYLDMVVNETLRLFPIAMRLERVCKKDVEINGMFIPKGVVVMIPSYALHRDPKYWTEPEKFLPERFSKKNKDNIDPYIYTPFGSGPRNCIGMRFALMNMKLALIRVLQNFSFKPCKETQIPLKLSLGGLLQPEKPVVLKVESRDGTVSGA
T1 sequence (P11712 whole entry): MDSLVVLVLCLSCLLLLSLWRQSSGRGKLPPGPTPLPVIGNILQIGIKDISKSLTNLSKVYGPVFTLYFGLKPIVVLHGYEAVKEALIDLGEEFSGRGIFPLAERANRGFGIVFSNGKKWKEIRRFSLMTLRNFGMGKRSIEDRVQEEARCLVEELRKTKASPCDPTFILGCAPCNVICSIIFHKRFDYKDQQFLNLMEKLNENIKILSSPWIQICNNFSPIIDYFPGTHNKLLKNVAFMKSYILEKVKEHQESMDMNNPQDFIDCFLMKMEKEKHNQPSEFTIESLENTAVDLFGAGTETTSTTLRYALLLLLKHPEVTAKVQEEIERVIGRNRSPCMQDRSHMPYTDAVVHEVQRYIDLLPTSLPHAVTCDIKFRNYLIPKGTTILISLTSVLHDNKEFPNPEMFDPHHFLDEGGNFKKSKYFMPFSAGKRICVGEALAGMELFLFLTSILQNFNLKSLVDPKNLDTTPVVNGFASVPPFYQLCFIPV
T4 sequence (P10635 whole entry): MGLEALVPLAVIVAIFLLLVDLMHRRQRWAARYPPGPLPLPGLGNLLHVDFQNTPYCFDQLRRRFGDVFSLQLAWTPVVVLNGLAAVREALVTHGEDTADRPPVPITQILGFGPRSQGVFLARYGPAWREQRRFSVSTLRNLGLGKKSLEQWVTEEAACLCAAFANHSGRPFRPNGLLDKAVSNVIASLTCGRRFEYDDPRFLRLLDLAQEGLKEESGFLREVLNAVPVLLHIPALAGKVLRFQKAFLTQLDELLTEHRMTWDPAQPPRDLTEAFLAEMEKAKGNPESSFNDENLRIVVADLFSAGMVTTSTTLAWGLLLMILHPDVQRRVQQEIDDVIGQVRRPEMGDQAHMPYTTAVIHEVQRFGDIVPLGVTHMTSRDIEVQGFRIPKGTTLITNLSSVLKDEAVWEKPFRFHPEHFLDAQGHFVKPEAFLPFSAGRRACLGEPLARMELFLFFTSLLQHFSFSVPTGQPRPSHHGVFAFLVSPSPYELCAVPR
T2 sequence (P33261 whole entry): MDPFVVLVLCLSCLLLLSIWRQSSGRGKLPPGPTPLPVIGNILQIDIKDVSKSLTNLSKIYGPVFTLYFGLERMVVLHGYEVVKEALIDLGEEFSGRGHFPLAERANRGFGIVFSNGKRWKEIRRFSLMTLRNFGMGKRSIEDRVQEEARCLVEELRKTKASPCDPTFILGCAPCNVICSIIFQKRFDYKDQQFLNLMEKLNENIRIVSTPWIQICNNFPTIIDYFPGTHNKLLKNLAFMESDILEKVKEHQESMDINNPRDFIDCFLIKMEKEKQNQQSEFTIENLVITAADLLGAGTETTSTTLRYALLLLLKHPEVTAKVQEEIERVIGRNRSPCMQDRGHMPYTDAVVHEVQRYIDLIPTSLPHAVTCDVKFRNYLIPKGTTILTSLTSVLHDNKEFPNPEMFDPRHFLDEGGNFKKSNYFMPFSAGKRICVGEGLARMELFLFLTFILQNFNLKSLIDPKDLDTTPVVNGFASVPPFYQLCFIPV

Row | Structure (SMILES) | pKb [10] | pKb [11] | inhibition at 3 µM [12] | inhibition at 3 µM [13] | inhibition at 3 µM [14] | inhibition at 3 µM [15] | inhibition at 3 µM [16] | inhibition at 3 µM [17] | further results
1 | Cc1ccc(-n2nccn2)c(C(=O)N2CC3(CC3)C[C@H]2CNc2cccc(C)n2)c1 | 7.1 | < 5 |  |  |  |  |  |  | inhibition at 1 µM [1]: < 34%; inhibition at 1 µM [2]: < 34%; inhibition at 1 µM [3]: < 34%; inhibition at 1 µM [4]: < 34%; inhibition at 1 µM [5]: < 34%; Kp at 1 h [6]: 0.2; inhibition at 1 µM [7]: < 34%; Vd [8]: 0.48 L/kg; clearance [9]: 33.1 mL/min/kg
2 | Cc1ccc(-c2nccs2)c(C(=O)N2CC3(CC3)C[C@H]2CNc2ccc(C(F)(F)F)cn2)n1 | 8.6 | 8 | < 89% | < 89% | < 89% | < 89% | < 89% | < 89% | 
3 | Cc1cccc(NC[C@@H]2CC3(CC3)CN2C(=O)c2nc(C)sc2-c2ccccc2)n1 | 7.3 | 7.6 |  |  |  |  |  |  | 
4 | Cc1ccc(-c2ncccn2)c(C(=O)N2CC3(CC3)C[C@H]2CNc2ccc(C(F)(F)F)cn2)c1 | 8.7 | 6.6 |  |  |  |  |  |  | 
5 | Cc1nc(C(=O)N2CC3(CC3)C[C@H]2CNc2ncc(Cl)cn2)c(-c2ccccc2)s1 | 6.8 | 6.8 |  |  |  |  |  |  | 
6 | Cc1nc(C(=O)N2CC3(CC3)C[C@H]2CNc2cc(C(F)(F)F)ccn2)c(-c2ccccc2)s1 | 8.2 | 8.5 |  |  |  |  |  |  | inhibition at 1 µM [1]: < 55%; inhibition at 1 µM [2]: < 55%; inhibition at 1 µM [3]: < 55%; inhibition at 1 µM [4]: < 55%; inhibition at 1 µM [5]: < 55%; inhibition at 1 µM [7]: < 55%
7 | Cc1nc(C(=O)N2CCC3(CC3)C[C@H]2CNc2ccc(Cl)cn2)c(-c2ccccc2)s1 | 7.9 | < 5 |  |  |  |  |  |  | 
8 | O=C(c1nc(C(F)(F)F)ccc1-c1ncccn1)N1CC2(CC2)C[C@H]1CNc1ccc(C(F)(F)F)cn1 | 6.7 | 5 | < 39% | < 39% | < 39% | < 39% | < 39% | < 39% | 
9 | O=C(c1ncccc1-c1ncccn1)N1CC2(CC2)C[C@H]1CNc1ccc(C(F)(F)F)cn1 | 7.7 | 5 | < 47% | < 47% | < 47% | < 47% | < 47% | < 47% | 
10 | Cc1ccc(-n2nccn2)c(C(=O)N2CCC3(CC3)C[C@H]2CNc2ccc(Cl)cn2)c1 | 7.5 | < 5 |  |  |  |  |  |  | 
11 | Cc1nc(C(=O)N2CCC3(CC3)C[C@H]2CNc2ccc(C(F)(F)F)cn2)c(-c2ccccc2)s1 | 7.7 | < 5 |  |  |  |  |  |  | 
12 | Cc1ccc(-n2nccn2)c(C(=O)N2CCC3(CC3)C[C@H]2CNc2cccc(C)n2)c1 | 8.2 | < 5 |  |  |  |  |  |  | 
13 | O=C(c1cc(Cl)ccc1-c1ncccn1)N1CC2(CC2)C[C@H]1CNc1ccc(C(F)(F)F)cn1 | 8.1 | 7.2 | < 22% | < 22% | < 22% | < 22% | < 22% | < 22% | 
